Source: patent US8962691B2, “Retinoid replacements and opsin agonists and methods for the use thereof” (University of Washington, priority 2003, dated 2015)

Tests used:
[1] = Retinal in blood circulation after intravenous injection or gavage; assay type: in vivo, mouse; conditions: for t1/2 in the circulation: intravenous injection
Experimental: Oral gavage was carried out as described previously (Van Hooser et al., Proc. Natl. Acad. Sci. USA 97:8623-28 (2000)).
The chemicals were purchased from Sigma/Aldrich unless otherwise specified. Solution A contained 10 mg of 9-cis-retinal, 75 mg of Cremophor EL, 1 mg of α-tocopherol, and 0.6 mg of benzoic acid suspended in 1 ml of lactated Ringer's solution (Baxter). The mixture was vortexed for 10 minutes and centrifuged for 10 minutes at 20,000×g, and the concentration of 9-cis-retinal (7.7 mM) was determined spectrophotometrically. Solution B contained 13 mg of 9-cis-retinal, 50 mg of Cremophor EL, 10 mg of dipalmitoylphosphatidyl choline, and 40 mg of 2-hydroxypropyl-β-cyclodextrin suspended in 1 ml of lactated Ringer's solution (Baxter). The mixture was vortexed for 10 minutes and centrifuged for 10 minutes at 20,000×g, and the concentration of 9-cis-retinal (10 mM) was determined spectrophotometrically. Solutions A and B (typically, 100 μl) were delivered to the mouse lateral tail vein employing a 1-ml syringe equipped with a 27-gauge needle and a restraint tube.

phosphorylated opsin = target: T1, phosphorylated opsin (Mus musculus, UniProt P15409); assay: Immunocytochemistry with anti-phosphorylated Rh antibody; assay type: in vivo; conditions: gavaged once at PND 30, analyzed 48 hours post-treatment, dark
T1 construct: The retinas from Rpe65+/+ mice and Rpe65−/− mice were fixed in constant darkness; from tissue; host or cells: retina sections of Rpe65-/- and Rpe65+/+ mice (in vivo dosing)
T1 sequence (P15409 whole entry): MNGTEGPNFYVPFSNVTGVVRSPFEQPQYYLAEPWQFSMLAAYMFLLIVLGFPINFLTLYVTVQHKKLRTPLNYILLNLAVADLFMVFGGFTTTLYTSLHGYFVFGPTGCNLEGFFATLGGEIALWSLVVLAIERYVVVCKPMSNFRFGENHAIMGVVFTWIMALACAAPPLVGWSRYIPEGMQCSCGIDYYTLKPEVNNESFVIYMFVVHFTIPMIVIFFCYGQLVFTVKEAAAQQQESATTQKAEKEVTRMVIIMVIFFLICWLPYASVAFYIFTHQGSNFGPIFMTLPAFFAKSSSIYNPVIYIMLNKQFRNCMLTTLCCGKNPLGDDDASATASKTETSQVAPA
Experimental: Rpe65 mice were divided into five groups: Rpe65−/−, Rpe65−/− that were gavaged with 9-cis-retinal and kept in the dark; Rpe65−/− that were gavaged with 9-cis-retinal, exposed to a flash, and kept in the dark for 15 min; Rpe65+/+ that were kept in the dark; and Rpe65+/+ that were exposed to a flash and kept in the dark for 15 minutes. For the flash studies, dark-adapted mice were subjected to a flash (Sunpak 433D, 1 ms) from a distance of 2 cm. The retinas were fixed in 4% paraformalydehyde in 0.13 M sodium phosphate, pH 7.4, for 15 hours at 4° C., and the tissues were transferred to 5, 10, or 15% sucrose in 0.13 M sodium phosphate, pH 7.4, for 30 minutes each time and stored overnight in 20% sucrose in the same buffer at 4° C. The tissue was then transferred to optimal cutting temperature cryoembedding compound and sectioned at 10 μm. The cryosections were incubated overnight at 4° C. in mouse monoclonal anti-phosphorylated Rh A11-82P antibody diluted 1:10. Triton X-100 (0.1%) was included in all phosphate-buffered saline solutions to facilitate antibody penetration. The controls were processed by omitting primary antibodies from the incubation buffer. After incubation in primary antibodies, the sections were rinsed with phosphate-buffered saline and then incubated with indocarbocyanine (Cy3)-conjugated goat anti-mouse IgG (1:200). […]

Rpe65−/− mice [2] = assay: Light and electron microscopy of RPE-ROS interface; assay type: in vivo, mouse
Experimental: Eye cups were prepared by removing the anterior segment and vitreous. […] “Thin” sections (1.0 μm) were stained with Richardson's blue solution (1%) and subjected to light microscopy. “Ultrathin” sections (0.05 μm) were stained with uranyl acetate/lead citrate and subjected to electron microscopy.

Rpe65−/− mice [3] = assay: Mouse flicker electroretinograms; assay type: in vivo
Experimental: Mice were dark-reared from birth and anesthetized (ketaject/xylaject, 65 mg/kg intraperitoneally), and the pupils were dilated with tropicamide (1%). […] The mice were placed in a Ganzfield chamber, and flicker recordings were obtained from one eye.

rods from Rpe65−/− mice = assay: Single cell recordings of isolated rods; assay type: in vivo, mouse
Experimental: Mice were dark-reared from birth and sacrificed via cervical dislocation, and the eyes were removed. The retina was isolated and stored on ice for up to 12 hours in HEPES-buffered Ames' solution (10 mM HEPES, pH adjusted to 7.4 with NaOH). Isolated rods were obtained by shredding a small piece of retina (roughly 1 mm^2) with fine needles in a 160-μl drop of solution. The drop was then injected into a recording chamber mounted on the stage of an inverted microscope (Nikon Eclipse) equipped with an infrared video viewing system and continuously superfused at 2-3 ml/minute with bicarbonate-buffered Ames' solution warmed to 37° C. (pH 7.4 when equilibrated with 5% CO2, 95% O2). The entire dissection was carried out under infrared illumination using a dissecting microscope equipped with infrared-visible image converters.
An isolated rod was drawn by suction into a heat-polished, silanized borosilicate electrode with an opening 1.2-1.5 μm in diameter. The electrode was filled with HEPES-buffered Ames' solution. The electrical connections to the bath and suction electrode were made by NaCl-filled agar bridges that contacted calomel half-cells. Bath voltage was held at ground by an active clamp circuit (Baylor et al. J. Physiol. 354:203-23 (1984)). Membrane current collected by the suction electrode was amplified by an Axopatch 200A patch clamp amplifier (Axon Instruments, Foster City, Calif.), filtered at 30 Hz (3 dB point) with an 8-pole Bessel low pass filter, and digitized at 1 kHz.
Light from light-emitting diodes with peak outputs at 470, 570, and 640 nm were combined using a trifurcated fiber optic and focused on the preparation using a water immersion lens in place of the microscope condensor. The light stimulus was spatially uniform and illuminated a circular area 0.57 mm in diameter centered on the recorded cell. Light intensities were measured at the preparation and converted to equivalent 500-nm photons (max for rod sensitivity) using the absorption spectrum of rhodopsin and the measured light-emitting diode spectrum.

Rpe65−/− mice [4] = conditions: mouse, in vivo
Experimental: Mice were anesthetized by intraperitoneal injection with 15 μl/g body weight of 6 mg/ml ketamine and 0.44 mg/ml xylazine diluted with 10 mM phosphate buffer, pH 7.2, containing 100 mM NaCl. The pupils were dilated with 1% tropicamide. A contact lens electrode was placed on the eye with a drop of methylcellulose, and a ground electrode (a reference electrode) was placed in the ear. ERGs were recorded with the universal testing and electrophysiologic system 3000 (UTAS E-3000) (LKC Technologies, Inc.). The mice were placed in a Ganzfield chamber, and responses to flash stimuli were obtained from both eyes simultaneously. […] Two to four recordings were made with >10-second intervals. Typically, 4-8 animals were used for recording of each point in all conditions. All ERG measurements were done within 10-40 minutes after anesthesia.

CC1=C(/C=C/C(C)=C\C=C\C(C)=C\C=O)C(C)(C)CCC1 [9-cis-retinal]
presence of retinal in the bloodstream ([1]; gavage): greater than 48 hours | t1/2 in the circulation ([1]; in the presence of cyclodextrins): 23 h | t1/2 in the circulation ([1]; without cyclodextrins): 12 h | ROS labeling by antibody against phosphorylated opsin (phosphorylated opsin): abolished | filling of RPE vacuoles (lipid-like droplets) (Rpe65−/− mice [2]; early treated mice, over several months): only partially filled | interface contacts between the RPE and ROS (Rpe65−/− mice [2]; young animals or young adults treated): improved | time rod retinal function is supported post-treatment (Rpe65−/− mice [3]; early intervention, Rpe65−/− mice): more than 6 months | gain in ERG sensitivity over untreated mice (Rpe65−/− mice [3]; eight weeks after single 2.5 mg): 2.1 logarithmic units | flicker ERG peak amplitude (Rpe65−/− mice [3]; eight weeks after single 2.5 mg, at 0.059 cd·s/m^2): 137.3±24.4 μV | flicker ERG peak amplitude (Rpe65−/− mice [3]; eight weeks after single 2.5 mg, at 13 cd·s/m^2): 40.0±7.1 μV | persistence of partial recovery of ERG sensitivity (Rpe65−/− mice [3]; treated once at PND 30): more than 12 weeks | factor of increase of half-saturating flash intensity over Rpe65+/+ rods (rods from Rpe65−/− mice; 0.25 mg): 131 | further desensitization of rods (rods from Rpe65−/− mice; 0.25 mg): 6.8 fold | light-sensitive dark current of rods (rods from Rpe65−/− mice; 0.25 mg): 3.6±0.9 pA | factor of increase of half-saturating flash intensity over Rpe65+/+ rods (rods from Rpe65−/− mice; 1.25 mg): 66 | further desensitization of rods (rods from Rpe65−/− mice; 1.25 mg): 4.5 fold | dim flash response kinetics vs Rpe65+/+ (rods from Rpe65−/− mice; 2.5 mg): essentially the same kinetics | factor of increase of half-saturating flash intensity over Rpe65+/+ rods (rods from Rpe65−/− mice; 2.5 mg): 6 | increase in half-saturating flash strength compared with rods of Rpe65+/+ (rods from Rpe65−/− mice; 2.5 mg): 6 fold | rod dark current (rods from Rpe65−/− mice; 2.5 mg): essentially the same as Rpe65+/+ | dim flash response time-to-peak and recovery times (rods from Rpe65−/− mice; 1.25 or 0.25 mg): substantially faster than those of Rpe65+/+ | half-saturating flash intensity I0 (rods from Rpe65−/− mice; Rpe65−/− mice treated with 0.25 mg of 9-cis-retinal): 3929 equivalent 500 nm photons/μm^2 | half-saturating flash intensity I0 (rods from Rpe65−/− mice; Rpe65−/− mice treated with 1.25 mg of 9-cis-retinal): 1995 equivalent 500 nm photons/μm^2 | half-saturating flash intensity I0 (rods from Rpe65−/− mice; Rpe65−/− mice treated with 2.5 mg of 9-cis-retinal): 164 equivalent 500 nm photons/μm^2 | ERG activity (a- and b-wave) compared with Me2SO (Rpe65−/− mice [4]): significantly increased sensitivity
